Activity calls are given as the source filed them.
Key:
[1] = molecular target: T1, Nuclear factor erythroid 2-related factor 2 (Homo sapiens) (UniProt Q16236); test: Activation of Nrf2 in human L02 cells harboring control siRNA assessed as increase in GCLM mRNA expression at 10 uM measured after 10 hrs by trizol reagent based qRT-PCR analysis; format: cell-based
T1 sequence (whole entry): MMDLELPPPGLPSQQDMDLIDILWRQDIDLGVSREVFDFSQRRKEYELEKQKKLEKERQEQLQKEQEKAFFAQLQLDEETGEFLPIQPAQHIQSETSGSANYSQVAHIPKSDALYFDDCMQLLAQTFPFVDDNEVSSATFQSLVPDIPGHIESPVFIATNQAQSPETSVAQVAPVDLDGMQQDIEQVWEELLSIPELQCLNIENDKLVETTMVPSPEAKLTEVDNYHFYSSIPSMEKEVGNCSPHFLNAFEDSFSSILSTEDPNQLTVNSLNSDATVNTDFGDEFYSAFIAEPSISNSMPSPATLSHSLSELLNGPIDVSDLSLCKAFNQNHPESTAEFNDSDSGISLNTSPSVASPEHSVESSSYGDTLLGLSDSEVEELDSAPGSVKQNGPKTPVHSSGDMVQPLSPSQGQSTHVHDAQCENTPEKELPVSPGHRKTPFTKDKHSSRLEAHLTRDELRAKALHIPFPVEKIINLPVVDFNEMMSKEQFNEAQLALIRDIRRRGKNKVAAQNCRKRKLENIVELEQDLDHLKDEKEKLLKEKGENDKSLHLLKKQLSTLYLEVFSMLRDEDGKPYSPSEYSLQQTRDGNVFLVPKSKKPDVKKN

[2] = molecular target: T1, Nuclear factor erythroid 2-related factor 2 (Homo sapiens); test: Activation of Nrf2 in human L02 cells assessed as increase in NEFL2L mRNA expression measured after 12 hrs by trizol reagent based qRT-PCR analysis; format: cell-based
Mus musculus [3] = test: Protection against APAP-induced hepatotoxicity in C57BL/6 mouse assessed as decrease in reactive oxygen species level in liver at 10 to 40 mg/kg, ip treated 2 hrs prior to 22 hrs starvation followed by APAP challenge and measured after 6 hrs; format: functional, organism-based
Mus musculus [4] = test: Protection against APAP-induced hepatotoxicity in C57BL/6 mouse assessed as destruction of liver structure at 10 to 40 mg/kg, ip treated 2 hrs prior to 22 hrs starvation followed by APAP challenge and measured after 6 hrs by H and E staining-based light microscopic analysis; format: functional, organism-based
[5] = molecular target: T1, Nuclear factor erythroid 2-related factor 2 (Homo sapiens); test: Activation of Nrf2 in human L02 cells assessed as increase in GCLM expression at 10 uM measured after 4 to 72 hrs hrs by Western blot analysis; format: cell-based
[6] = molecular target: T1, Nuclear factor erythroid 2-related factor 2 (Homo sapiens); test: Activation of Nrf2 in human L02 cells assessed as increase in GCLM expression measured after 12 hrs by Western blot analysis; format: cell-based
[7] = molecular target: T1, Nuclear factor erythroid 2-related factor 2 (Homo sapiens); test: Activation of Nrf2 in human L02 cells assessed as increase in GCLM mRNA expression at 10 uM measured after 8 to 24 hrs by trizol reagent based qRT-PCR analysis; format: cell-based
[8] = molecular target: T1, Nuclear factor erythroid 2-related factor 2 (Homo sapiens); test: Activation of Nrf2 in human L02 cells harboring control siRNA assessed as increase in HO-1 mRNA expression at 10 uM measured after 10 hrs by trizol reagent based qRT-PCR analysis; format: cell-based
L02 [9] = test: Cytoprotective activity against APAP-induced hepatotoxicity in human L02 cells harboring Nrf2 siRNA assessed as increase in cell viability at 5 to 10 uM preincubated for 12 hrs followed by APAP addition and measured after 24 hrs by MTT assay; format: functional, cell-based
Mus musculus [10] = test: Protection against APAP-induced hepatotoxicity in C57BL/6 mouse assessed as decrease in IL6 production at 10 mg/kg, ip treated 2 hrs prior to 22 hrs starvation followed by APAP challenge and measured after 6 hrs; format: functional, organism-based
Mus musculus [11] = test: Protection against APAP-induced hepatotoxicity in C57BL/6 mouse assessed as decrease in ALT level at 10 mg/kg, ip treated 2 hrs prior to 22 hrs starvation followed by APAP challenge and measured after 6 hrs; format: functional, organism-based
[12] = molecular target: T1, Nuclear factor erythroid 2-related factor 2 (Homo sapiens); test: Activation of Nrf2 in human L02 cells assessed as increase in NQO-1 mRNA expression at 10 uM measured after 8 to 24 hrs by trizol reagent based qRT-PCR analysis; format: cell-based
[13] = molecular target: T1, Nuclear factor erythroid 2-related factor 2 (Homo sapiens); test: Activation of Nrf2 in human L02 cells harboring control siRNA assessed as increase in HO-1 expression at 10 uM measured after 10 hrs by Western blot analysis; format: cell-based
Mus musculus [14] = test: Protection against APAP-induced hepatotoxicity in C57BL/6 mouse assessed as decrease in HO-1 expression in liver at 10 to 40 mg/kg, ip treated 2 hrs prior to 22 hrs starvation followed by APAP challenge and measured after 6 hrs by Dako/Mayer's hematoxylin staining-based immunohistochemical analysis; format: functional, organism-based
L02 [15] = test: Upregulation of NQO-1 expression in human L02 cells harboring Nrf2 siRNA at 10 uM measured after 10 hrs by Western blot analysis; format: functional, cell-based
L02 [16] = test: Upregulation of HO-1 expression in human L02 cells harboring Nrf2 siRNA at 10 uM measured after 10 hrs by Western blot analysis; format: functional, cell-based
L02 [17] = test: Upregulation of NQO-1 mRNA expression in human L02 cells harboring Nrf2 siRNA at 10 uM measured after 10 hrs by trizol reagent based qRT-PCR analysis; format: functional, cell-based
[18] = molecular target: T1, Nuclear factor erythroid 2-related factor 2 (Homo sapiens); test: Activation of Nrf2 in human L02 cells harboring control siRNA assessed as increase in NEFL2L mRNA expression at 10 uM measured after 10 hrs by trizol reagent based qRT-PCR analysis; format: cell-based
Mus musculus [19] = test: Protection against APAP-induced hepatotoxicity in C57BL/6 mouse assessed as reduction in liver apoptosis at 10 to 40 mg/kg, ip treated 2 hrs prior to 22 hrs starvation followed by APAP challenge and measured after 6 hrs by TUNEL assay; format: functional, organism-based
L02 [20] = test: cells; settings: Homo sapiens, L02, read-out: Activity
Description: Cytoprotective activity against APAP-induced apoptosis in human L02 cells assessed as viable cells at 10 uM preincubated for 12 hrs followed by APAP addition and measured after 12 hrs by FITC-Annexin V/propidium iodide staining based flow cytometry (Rvb = 50.6%)

L02 [21] = test: Cytotoxicity against human L02 cells assessed as reduction in cell viability up to 100 uM measured after 48 hrs by MTT assay; format: cell-based; settings: l02, 48 h
Mus musculus [22] = test: Protection against APAP-induced hepatotoxicity in C57BL/6 mouse assessed as decrease in total bilirubin level at 10 mg/kg, ip treated 2 hrs prior to 22 hrs starvation followed by APAP challenge and measured after 6 hrs; format: functional, organism-based
Mus musculus [23] = test: Protection against APAP-induced hepatotoxicity in C57BL/6 mouse assessed as decrease in liver hemorrhage at 10 to 40 mg/kg, ip treated 2 hrs prior to 22 hrs starvation followed by APAP challenge and measured after 6 hrs by H and E staining-based light microscopic analysis; format: functional, organism-based
L02 [24] = test: Upregulation of GCLM mRNA expression in human L02 cells harboring Nrf2 siRNA at 10 uM measured after 10 hrs by trizol reagent based qRT-PCR analysis; format: functional, cell-based
[25] = molecular target: T1, Nuclear factor erythroid 2-related factor 2 (Homo sapiens); test: Activation of Nrf2 in human L02 cells assessed as increase in HO-1 expression at 10 uM measured after 4 to 72 hrs hrs by Western blot analysis; format: cell-based
Mus musculus [26] = test: Protection against APAP-induced hepatotoxicity in C57BL/6 mouse assessed as increase in GSH/GSSG ratio in liver at 10 to 40 mg/kg, ip treated 2 hrs prior to 22 hrs starvation followed by APAP challenge and measured after 6 hrs; format: functional, organism-based

COc1ccc(S(=O)(=O)N(CC(=O)O)c2ccc(N3CCC[C@H]3C(=O)O)c3ccccc23)cc1
active: Activity [1] | Activity [2] Dose-dependent effect | Activity (Mus musculus [3]) | Activity (Mus musculus [4]) | Activity [5] | Activity [6] Dose-dependent effect | Activity [7] | Activity [8] | Activity (Mus musculus [10]) | Activity (Mus musculus [11]) | Activity [12] | Activity [13] | Activity (Mus musculus [14]) | Activity [18] | Activity (Mus musculus [19]) | Activity (Mus musculus [22]) | Activity (Mus musculus [23]) | Activity [25] | Activity (Mus musculus [26])
Non-Toxic: Activity (L02 [21])
inactive: Activity (L02 [9]) | Activity (L02 [15]) | Activity (L02 [16]) | Activity (L02 [17]) | Activity (L02 [24])
76%: viability at 10 µM (L02 [20])

— ChEMBL document CHEMBL4364299, “Discovery of a Potent Kelch-Like ECH-Associated Protein 1-Nuclear Factor Erythroid 2-Related Factor 2 (Keap1-Nrf2) Protein-Protein Interaction Inhibitor with Natural Proline Structure as a Cytoprotective Agent against Acetaminophen-Induced Hepatotoxicity” (J Med Chem, 2019)
